Source: publication PMC6030240 (Molecules and Cells, 2018)
pIC50: −log10 of the molar value. Like-named read-outs stand apart in the source and are kept apart here.

How the values were obtained:
[1] = target: T1, Spleen tyrosine kinase (SYK) (Homo sapiens, UniProt P43405); assay: co-crystal structure at […] Å; type: biochemical
[2] = target: T1, Spleen tyrosine kinase (SYK); assay: co-crystal structure at […] Å; type: biochemical; remark: listed apart in the source

| pIC50 [1] | pIC50 [2] | Structure (SMILES) |
| --- | --- | --- |
| 7.75 | – | Cn1ncc2cc(Nc3nc(N4CCC(O)CC4)nc4cc[nH]c(=O)c34)ccc21 [SKI-G-618, 2-(4-hydroxypiperidin-1-yl)-4-((1-methyl-1H-indazol-5-yl)amino)pyrido[4,3-d]pyrimidin-5(6H)-one] |
| – | 6.68 | CS(=O)(=O)c1ccc(Nc2nc(N[C@H]3CCCC[C@@H]3N)nc3cc[nH]c(=O)c23)cc1 [SKI-O-85, (1S,2S)-2-((4-((4-(methylsulfonyl)phenyl)amino)-5-oxo-5,6-dihydropyrido[4,3-d]pyrimidin-2-yl)amino)cyclohexan-1-aminium] |
